{
  "source": "ChEMBL document CHEMBL1201862",
  "about": "“PubChem BioAssay data set” (2004)",
  "key": {"[1]": {"biological_target": "Nonstructural protein 1 (Influenza A virus, UniProt Q194T2)", "sequence (Q194T2 whole entry)": "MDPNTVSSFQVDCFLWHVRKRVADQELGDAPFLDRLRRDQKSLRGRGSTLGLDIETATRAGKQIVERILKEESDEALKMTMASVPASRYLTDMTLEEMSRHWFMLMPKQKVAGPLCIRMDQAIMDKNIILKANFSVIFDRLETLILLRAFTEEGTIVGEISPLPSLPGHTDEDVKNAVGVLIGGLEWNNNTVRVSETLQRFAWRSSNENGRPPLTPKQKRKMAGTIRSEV", "type": "functional, Influenza A virus (A/California/07/2009(H1N1))"}, "[2]": {"assay": "viability loss in HeLa cells – cytotoxicity control for MgcRacGAP inhibitor project, dose response (AID 624300)", "type": "functional"}, "[3]": {"biological_target": "T1, Rac GTPase-activating protein 1 (Homo sapiens, UniProt Q9H0H5)", "T1 sequence (Q9H0H5 whole entry)": "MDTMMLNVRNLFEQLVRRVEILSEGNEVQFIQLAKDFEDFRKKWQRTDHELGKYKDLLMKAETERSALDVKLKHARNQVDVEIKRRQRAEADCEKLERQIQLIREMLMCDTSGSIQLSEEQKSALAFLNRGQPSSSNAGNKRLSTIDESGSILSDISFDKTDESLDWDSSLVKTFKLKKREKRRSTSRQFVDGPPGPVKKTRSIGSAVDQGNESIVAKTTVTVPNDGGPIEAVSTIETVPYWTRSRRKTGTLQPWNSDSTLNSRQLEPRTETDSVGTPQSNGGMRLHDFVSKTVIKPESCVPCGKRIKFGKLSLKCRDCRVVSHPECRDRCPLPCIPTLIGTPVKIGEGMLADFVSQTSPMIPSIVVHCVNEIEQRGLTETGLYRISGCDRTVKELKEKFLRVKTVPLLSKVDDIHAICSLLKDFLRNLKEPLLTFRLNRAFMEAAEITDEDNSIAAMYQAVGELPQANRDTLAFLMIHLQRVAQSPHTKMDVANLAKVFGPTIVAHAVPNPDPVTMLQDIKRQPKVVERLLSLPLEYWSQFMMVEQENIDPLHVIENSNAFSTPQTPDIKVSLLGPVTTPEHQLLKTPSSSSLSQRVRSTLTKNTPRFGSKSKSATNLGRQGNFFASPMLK", "assay": "blockers of MgcRacGAP-driven Rac1 GTP hydrolysis – biochemical, ADP Hunter fluorescence, primary and confirmatory, confirmation (AID 624330)", "type": "functional"}, "[4]": {"assay": "viability of PTEN-deleted HCT116 cells – cell-based, HCT116 PTEN knockout, dose response (AID 1047);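 also: cells exposed to compound for 60 hours before readout; potency for loss of cell viability measured by luminescence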", "type": "functional"}, "[5]": {"assay": "viability of HCT116 lacking mutant beta-catenin – cell-based, human colon tumor, dose response (AID 1045);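 also: cells exposed to compound for 60 hours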", "type": "functional"}, "[6]": {"biological_target": "T2, Mannose-6-phosphate isomerase (Homo sapiens, UniProt P34949)", "T2 sequence (P34949 whole entry)": "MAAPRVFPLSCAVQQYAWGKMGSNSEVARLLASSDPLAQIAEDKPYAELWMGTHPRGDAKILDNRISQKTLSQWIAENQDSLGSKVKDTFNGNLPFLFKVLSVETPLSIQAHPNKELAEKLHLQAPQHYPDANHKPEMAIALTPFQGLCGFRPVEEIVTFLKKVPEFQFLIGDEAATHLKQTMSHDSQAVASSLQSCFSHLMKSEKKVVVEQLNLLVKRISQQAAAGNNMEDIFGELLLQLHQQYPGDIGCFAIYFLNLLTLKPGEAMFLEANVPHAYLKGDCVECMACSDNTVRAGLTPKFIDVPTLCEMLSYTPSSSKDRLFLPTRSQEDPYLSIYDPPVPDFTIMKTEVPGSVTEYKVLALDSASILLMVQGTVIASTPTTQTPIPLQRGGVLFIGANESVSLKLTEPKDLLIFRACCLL", "assay": "MPI inhibition at elevated mannose 6-phosphate – biochemical, fluorescence intensity, high mannose 6-phosphate, primary screen (AID 1220)"}, "[7]": {"biological_target": "Galanin receptor type 2 (Homo sapiens, UniProt O43603)", "assay": "Dose Response cell-based high-throughput screening assay to identify antagonists of galanin receptor 2 (GALR2). [Related pubchem assays: 828, 866 ]", "type": "functional"}, "[8]": {"tested_on": "Vero", "assay": "viability of Vero cells under compound – cytotoxicity control for flavivirus capping enzyme inhibitors (AID 588742)", "type": "functional", "conditions": "Chlorocebus sabaeus"}, "[9]": {"biological_target": "T3, Histone-lysine N-methyltransferase NSD2 (Homo sapiens, UniProt O96028)", "T3 sequence (O96028 whole entry)": "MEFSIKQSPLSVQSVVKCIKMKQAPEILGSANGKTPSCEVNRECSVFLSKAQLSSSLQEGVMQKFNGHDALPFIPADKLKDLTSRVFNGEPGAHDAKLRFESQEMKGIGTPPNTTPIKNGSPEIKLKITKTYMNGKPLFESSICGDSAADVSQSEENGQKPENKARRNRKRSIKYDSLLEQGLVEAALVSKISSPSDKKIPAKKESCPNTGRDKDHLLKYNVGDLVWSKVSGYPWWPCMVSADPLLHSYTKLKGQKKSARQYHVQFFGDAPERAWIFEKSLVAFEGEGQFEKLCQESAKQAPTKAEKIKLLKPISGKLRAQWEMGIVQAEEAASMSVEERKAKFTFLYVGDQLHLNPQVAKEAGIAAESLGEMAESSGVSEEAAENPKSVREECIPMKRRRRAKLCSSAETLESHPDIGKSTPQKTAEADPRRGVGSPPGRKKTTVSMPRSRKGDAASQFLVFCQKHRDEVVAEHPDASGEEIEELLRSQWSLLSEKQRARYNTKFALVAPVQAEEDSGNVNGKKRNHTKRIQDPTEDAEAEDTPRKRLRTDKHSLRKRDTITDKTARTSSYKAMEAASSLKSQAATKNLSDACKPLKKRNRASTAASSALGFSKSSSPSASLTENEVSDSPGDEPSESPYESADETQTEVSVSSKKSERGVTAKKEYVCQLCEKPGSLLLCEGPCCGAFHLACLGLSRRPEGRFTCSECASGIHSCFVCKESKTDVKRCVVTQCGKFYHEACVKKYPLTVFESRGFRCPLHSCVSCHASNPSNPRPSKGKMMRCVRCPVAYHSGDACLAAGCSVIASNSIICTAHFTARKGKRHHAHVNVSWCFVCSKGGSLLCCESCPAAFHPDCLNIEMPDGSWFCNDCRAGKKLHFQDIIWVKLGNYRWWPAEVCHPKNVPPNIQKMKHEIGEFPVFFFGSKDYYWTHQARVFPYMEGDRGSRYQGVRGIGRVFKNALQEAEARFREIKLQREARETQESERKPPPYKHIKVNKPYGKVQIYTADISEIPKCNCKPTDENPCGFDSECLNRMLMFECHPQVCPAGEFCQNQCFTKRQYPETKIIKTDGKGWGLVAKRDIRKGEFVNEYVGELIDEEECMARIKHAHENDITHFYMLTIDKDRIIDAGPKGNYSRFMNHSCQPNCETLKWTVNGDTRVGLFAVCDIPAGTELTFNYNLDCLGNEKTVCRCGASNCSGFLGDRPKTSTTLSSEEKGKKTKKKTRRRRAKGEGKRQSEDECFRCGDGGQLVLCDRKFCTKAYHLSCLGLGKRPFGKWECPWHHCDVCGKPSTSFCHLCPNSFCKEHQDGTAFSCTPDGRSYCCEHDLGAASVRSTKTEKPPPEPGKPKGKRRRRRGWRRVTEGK", "type": "biochemical"}, "[10]": {"biological_target": "T4, Polyadenylate-binding protein 1 (Homo sapiens, UniProt P11940)", "T4 sequence (P11940 whole entry, the tested form may be a part)": "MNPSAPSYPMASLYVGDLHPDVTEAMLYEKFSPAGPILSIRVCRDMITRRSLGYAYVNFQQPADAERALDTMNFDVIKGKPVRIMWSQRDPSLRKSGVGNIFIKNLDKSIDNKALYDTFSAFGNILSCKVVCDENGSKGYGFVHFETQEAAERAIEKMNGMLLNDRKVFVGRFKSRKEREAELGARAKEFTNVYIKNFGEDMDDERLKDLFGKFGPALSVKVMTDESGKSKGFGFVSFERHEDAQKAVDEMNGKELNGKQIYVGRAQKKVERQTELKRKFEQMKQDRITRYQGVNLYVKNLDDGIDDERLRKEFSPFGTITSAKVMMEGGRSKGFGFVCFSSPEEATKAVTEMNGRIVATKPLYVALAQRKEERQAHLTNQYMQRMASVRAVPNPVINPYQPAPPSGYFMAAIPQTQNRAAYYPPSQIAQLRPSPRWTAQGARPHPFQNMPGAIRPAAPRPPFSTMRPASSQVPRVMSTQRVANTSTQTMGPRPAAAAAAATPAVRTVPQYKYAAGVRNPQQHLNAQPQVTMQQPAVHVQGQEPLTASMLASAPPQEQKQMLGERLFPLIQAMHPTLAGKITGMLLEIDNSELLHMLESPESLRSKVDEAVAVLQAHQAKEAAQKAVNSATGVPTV", "assay": "MLLE domain peptide-binding blockers, IC50 – biochemical, fluorescence polarization, FITC-PAM2 peptide, dose response (AID 602259)", "type": "functional", "conditions": "read-out: IC50_Mean"}, "[11]": {"biological_target": "Peroxisome proliferator-activated receptor gamma/Nuclear receptor corepressor 2 (Homo sapiens, UniProt P37231+Q9Y618)", "sequence (P37231 whole entry)": "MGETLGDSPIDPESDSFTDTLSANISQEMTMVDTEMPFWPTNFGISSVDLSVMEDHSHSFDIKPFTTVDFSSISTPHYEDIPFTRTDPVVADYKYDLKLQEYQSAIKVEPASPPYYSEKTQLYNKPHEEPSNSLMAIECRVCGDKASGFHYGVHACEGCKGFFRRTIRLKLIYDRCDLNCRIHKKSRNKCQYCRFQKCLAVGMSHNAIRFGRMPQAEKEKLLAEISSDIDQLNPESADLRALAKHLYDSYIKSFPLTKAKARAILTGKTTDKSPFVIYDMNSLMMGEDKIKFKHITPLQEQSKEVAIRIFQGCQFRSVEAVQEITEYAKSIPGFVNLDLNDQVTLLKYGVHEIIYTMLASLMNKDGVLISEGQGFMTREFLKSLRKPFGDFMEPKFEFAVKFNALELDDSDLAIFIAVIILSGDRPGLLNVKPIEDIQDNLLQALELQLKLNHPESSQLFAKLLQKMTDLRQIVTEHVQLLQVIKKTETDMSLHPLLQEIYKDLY", "sequence (Q9Y618 whole entry)": "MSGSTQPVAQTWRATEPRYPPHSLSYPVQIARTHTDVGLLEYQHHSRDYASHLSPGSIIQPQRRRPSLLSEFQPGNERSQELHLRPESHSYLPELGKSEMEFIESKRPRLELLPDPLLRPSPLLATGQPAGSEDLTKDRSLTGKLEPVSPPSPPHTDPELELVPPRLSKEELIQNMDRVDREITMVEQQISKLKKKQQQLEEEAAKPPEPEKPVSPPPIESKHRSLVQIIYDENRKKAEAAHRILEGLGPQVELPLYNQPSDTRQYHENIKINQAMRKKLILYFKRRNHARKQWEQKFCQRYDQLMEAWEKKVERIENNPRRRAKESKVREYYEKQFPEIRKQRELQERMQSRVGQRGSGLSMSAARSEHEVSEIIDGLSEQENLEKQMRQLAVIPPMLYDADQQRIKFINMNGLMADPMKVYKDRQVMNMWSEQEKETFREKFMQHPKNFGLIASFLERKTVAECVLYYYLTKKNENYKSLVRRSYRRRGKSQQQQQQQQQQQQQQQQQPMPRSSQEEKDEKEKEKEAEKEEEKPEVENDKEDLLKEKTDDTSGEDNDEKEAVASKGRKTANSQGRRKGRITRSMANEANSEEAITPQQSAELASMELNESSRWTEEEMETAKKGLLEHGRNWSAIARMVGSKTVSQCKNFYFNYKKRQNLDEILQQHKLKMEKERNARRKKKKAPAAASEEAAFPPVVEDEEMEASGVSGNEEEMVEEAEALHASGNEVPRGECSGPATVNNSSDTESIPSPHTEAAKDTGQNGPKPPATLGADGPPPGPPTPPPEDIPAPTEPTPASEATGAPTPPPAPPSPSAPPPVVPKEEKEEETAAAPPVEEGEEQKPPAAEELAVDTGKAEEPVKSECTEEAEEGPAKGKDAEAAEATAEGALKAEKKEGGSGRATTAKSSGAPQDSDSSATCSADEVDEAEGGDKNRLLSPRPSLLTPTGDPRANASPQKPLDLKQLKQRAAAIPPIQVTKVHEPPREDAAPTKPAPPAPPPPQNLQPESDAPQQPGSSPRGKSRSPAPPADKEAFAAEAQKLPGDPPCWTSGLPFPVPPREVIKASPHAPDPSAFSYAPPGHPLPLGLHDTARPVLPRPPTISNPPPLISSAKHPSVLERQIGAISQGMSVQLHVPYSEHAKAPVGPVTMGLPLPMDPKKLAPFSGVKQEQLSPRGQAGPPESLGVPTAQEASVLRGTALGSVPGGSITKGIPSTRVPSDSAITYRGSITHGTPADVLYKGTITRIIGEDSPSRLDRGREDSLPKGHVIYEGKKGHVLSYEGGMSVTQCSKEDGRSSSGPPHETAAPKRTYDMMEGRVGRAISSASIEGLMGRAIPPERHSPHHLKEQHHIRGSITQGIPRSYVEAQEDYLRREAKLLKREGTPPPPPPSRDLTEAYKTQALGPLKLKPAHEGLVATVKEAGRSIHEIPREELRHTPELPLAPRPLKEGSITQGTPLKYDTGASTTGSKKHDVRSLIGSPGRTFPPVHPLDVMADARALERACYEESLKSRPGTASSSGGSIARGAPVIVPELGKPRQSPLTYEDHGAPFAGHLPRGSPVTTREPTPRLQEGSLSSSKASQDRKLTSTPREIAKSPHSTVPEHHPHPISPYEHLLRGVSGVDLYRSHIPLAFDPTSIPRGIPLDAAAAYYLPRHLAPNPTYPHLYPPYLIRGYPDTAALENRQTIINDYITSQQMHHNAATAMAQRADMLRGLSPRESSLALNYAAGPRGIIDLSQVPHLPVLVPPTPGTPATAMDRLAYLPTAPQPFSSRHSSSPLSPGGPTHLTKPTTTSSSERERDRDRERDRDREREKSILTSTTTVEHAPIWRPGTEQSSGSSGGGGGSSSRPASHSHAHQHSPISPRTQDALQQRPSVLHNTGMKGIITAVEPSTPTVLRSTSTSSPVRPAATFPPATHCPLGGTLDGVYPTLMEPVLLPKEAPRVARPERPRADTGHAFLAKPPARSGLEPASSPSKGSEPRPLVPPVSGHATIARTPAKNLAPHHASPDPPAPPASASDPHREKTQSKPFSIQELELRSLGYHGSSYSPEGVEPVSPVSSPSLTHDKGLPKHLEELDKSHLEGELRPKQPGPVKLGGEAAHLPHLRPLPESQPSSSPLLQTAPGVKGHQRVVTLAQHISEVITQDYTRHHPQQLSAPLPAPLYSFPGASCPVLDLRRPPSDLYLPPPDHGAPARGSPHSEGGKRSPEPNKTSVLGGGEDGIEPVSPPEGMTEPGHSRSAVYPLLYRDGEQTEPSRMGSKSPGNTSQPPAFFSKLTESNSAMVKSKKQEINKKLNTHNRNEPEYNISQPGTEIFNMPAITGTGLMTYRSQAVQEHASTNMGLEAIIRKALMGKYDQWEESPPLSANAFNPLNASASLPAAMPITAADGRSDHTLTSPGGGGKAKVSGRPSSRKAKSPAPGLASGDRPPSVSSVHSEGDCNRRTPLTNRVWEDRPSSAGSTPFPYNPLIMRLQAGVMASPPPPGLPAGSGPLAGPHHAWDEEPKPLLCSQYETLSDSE", "type": "functional"}, "[12]": {"biological_target": "Estrogen receptor beta (Homo sapiens, UniProt Q92731)", "sequence (Q92731 whole entry)": "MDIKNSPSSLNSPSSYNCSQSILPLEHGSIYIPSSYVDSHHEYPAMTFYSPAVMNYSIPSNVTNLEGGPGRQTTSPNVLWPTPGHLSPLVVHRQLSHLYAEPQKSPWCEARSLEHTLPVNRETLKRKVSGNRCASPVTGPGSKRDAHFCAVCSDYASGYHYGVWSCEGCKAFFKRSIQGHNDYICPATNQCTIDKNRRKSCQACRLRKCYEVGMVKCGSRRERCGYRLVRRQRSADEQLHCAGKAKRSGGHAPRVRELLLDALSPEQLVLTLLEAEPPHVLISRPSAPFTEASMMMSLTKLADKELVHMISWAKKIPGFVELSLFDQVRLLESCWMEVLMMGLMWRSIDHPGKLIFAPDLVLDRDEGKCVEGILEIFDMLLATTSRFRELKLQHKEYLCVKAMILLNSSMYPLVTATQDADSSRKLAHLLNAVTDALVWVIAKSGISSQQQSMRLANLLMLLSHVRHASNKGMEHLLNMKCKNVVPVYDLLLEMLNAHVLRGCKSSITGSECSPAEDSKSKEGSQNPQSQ"}, "[13]": {"assay": "Luminescence Cell-Based Dose Confirmation to Identify Activators of 5'UTR Stem-Loop Driven Alpha-Synuclein mRNA Translation in H4 Neuroglioblastoma Cells. [Related pubchem assays: 1829 (Project Summary), 1814 (Primary HTS)]", "type": "functional"}, "[14]": {"assay": "Luminescence Cell-Based Dose Response to Identify Activators of Luciferase Translation or Activity in H4-C Neuroglioblastoma Cells. [Related pubchem assays: 1829 (Project Summary), 1814 (Primary HTS)]", "type": "functional"}, "[15]": {"biological_target": "Voltage-gated inwardly rectifying potassium channel KCNH2 (Homo sapiens, UniProt Q12809)", "assay": "concentration-dependent hERG rescue from blockers – cell-based, thallium flux, dose response (AID 2121)", "type": "ADME"}, "[16]": {"assay": "Luminescence Cell-Based Dose Response HTS to Identify Activators of Luciferase Translation or Activity in H4 […] Cells. [Related pubchem assays: 1829 (Project Summary), 1814 (Primary HTS)]", "type": "functional"}, "[17]": {"assay": "Luminescence Cell-Based Dose Response to Identify Activators of 5'UTR Stem-Loop Driven Prion Protein mRNA Translation in H4-C Neuroglioblastoma Cells. [Related pubchem assays: 1829 (Project Summary), 1814 (Primary HTS)]", "type": "functional"}, "[18]": {"assay": "fluconazole-exposed Candida albicans growth modulators – fluorescence, retest, confirmation (AID 2467)", "type": "functional, cell-based"}, "[19]": {"biological_target": "T4, Polyadenylate-binding protein 1", "assay": "MLLE binding blockers, Cy5 peptide tracer – biochemical, fluorescence polarization, Cy5-PAM2 peptide, secondary, miRNA deadenylation inhibitor project, dose response (AID 602260)", "type": "functional", "conditions": "read-out: IC50_Mean"}, "[20]": {"assay": "NIH-3T3 fibroblast cytotoxicity, dose response, cytotoxicity control, cell-based, fluorescence, Alamar Blue, secondary assay (AID 2327);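 also: NIH-3T3 mouse fibroblasts cultured with fluconazole at 8 µg/mL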", "type": "functional"}, "[21]": {"biological_target": "Photoreceptor-specific nuclear receptor (Homo sapiens, UniProt Q9Y5X4)", "sequence (Q9Y5X4 whole entry)": "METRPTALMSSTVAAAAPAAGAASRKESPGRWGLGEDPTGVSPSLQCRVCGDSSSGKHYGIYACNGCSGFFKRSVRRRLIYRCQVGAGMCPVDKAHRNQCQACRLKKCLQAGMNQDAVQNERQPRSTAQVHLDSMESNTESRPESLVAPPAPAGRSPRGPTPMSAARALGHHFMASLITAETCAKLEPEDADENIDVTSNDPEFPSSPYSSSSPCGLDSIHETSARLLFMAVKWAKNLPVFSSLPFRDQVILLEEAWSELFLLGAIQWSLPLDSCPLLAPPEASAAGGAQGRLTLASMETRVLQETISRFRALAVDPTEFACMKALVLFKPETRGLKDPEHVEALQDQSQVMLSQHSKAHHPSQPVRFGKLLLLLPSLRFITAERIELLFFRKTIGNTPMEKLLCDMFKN", "type": "functional"}, "[22]": {"assay": "Trypanosoma cruzi growth suppression in host cells – NIH3T3 host cells, beta-gal luminescence, confirmation (AID 2044);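 also: intracellular parasites grown in NIH/3T3 mouse fibroblasts as host cells; luminescent beta-galactosidase reporter signal from transgenic T. cruzi replicating inside host cells; inhibitors lower the luminescence signal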", "type": "functional, cell-based"}, "[23]": {"assay": "HepG2 cell cytotoxicity, dose response, cytotoxicity control for non-replicating M. tuberculosis project (AID 489018)", "type": "functional", "conditions": "Mycobacterium tuberculosis"}, "[24]": {"assay": "cells", "type": "functional"}, "[25]": {"biological_target": "Aryl hydrocarbon receptor (Homo sapiens, UniProt P35869)", "assay": "Luminescence-based cell-based high throughput dose response assay for activators of the Aryl Hydrocarbon Receptor (AHR). [Related pubchem assays: 2796 (Primary screen (AHR activators in singlicate)), 2845 (Confirmation screen (AHR activators in triplicate)), 434939 (Counterscreen (PXR activators in triplicate)), 2804 (Summary (AHR activators))]", "type": "ADME"}, "[26]": {"assay": "THP-1 cell cytotoxicity, dose response, cytotoxicity control for non-replicating M. tuberculosis project (AID 489025)", "type": "functional"}, "[27]": {"assay": "Vero E6 cell cytotoxicity, dose response, cytotoxicity control for non-replicating M. tuberculosis project, secondary assay (AID 492998)", "type": "functional, VeroE6", "conditions": "Vero C1008"}, "[28]": {"assay": "NIH3T3 cell viability loss – ATP luminescence, mouse fibroblasts, counter-screen, dose response (AID 2010);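 also: cells exposed to compound for about 90 hours before reading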", "type": "functional, cell-based"}},
  "note": "Activity calls are given as the source filed them.",
  "data": [
    {"smiles": "CN(C)c1ccc(NC2=C(Cl)C(=O)c3ccccc3C2=O)cc1", "values": [
      {"measurement": "IC50", "setting": "[1]", "result": "7.36 µM (active)"},
      {"measurement": "CC50", "setting": "[2]", "result": "16.1 µM (active)"},
      {"measurement": "IC50", "setting": "[3]", "result": "122 µM (active)"},
      {"measurement": "EC50", "setting": "[4]", "result": "6.29 µM (active)"},
      {"measurement": "EC50", "setting": "[5]", "result": "3.94 µM (active)"},
      {"measurement": "IC50", "setting": "[6]", "result": "> 50 µM (not active)"},
      {"measurement": "IC50", "setting": "[7]", "result": "8.84 µM (active)"},
      {"measurement": "CC50", "setting": "[8]", "result": "32.2 µM (active)"},
      {"measurement": "AC50", "setting": "[9]", "result": "5.02 µM (active)"}
    ]},
    {"smiles": "Cc1ccc(C(=O)Nc2nc3ccccc3c(=O)s2)cc1", "values": [
      {"measurement": "IC50", "setting": "[10]", "result": "> 66 µM (inactive)"},
      {"measurement": "IC50", "setting": "[11]", "result": "2.71 µM (active)"},
      {"measurement": "IC50", "setting": "[12]", "result": "> 50 µM (not active)"},
      {"measurement": "EC50", "setting": "[13]", "result": "0.295 µM (active)"},
      {"measurement": "EC50", "setting": "[14]", "result": "0.303 µM (active)"},
      {"measurement": "EC50", "setting": "[15]", "result": "2.74 µM (active)"},
      {"measurement": "EC50", "setting": "[16]", "result": "< 0.1 µM (inconclusive)"},
      {"measurement": "EC50", "setting": "[17]", "result": "0.311 µM (active)"},
      {"measurement": "EC50", "setting": "[18]", "result": "10.2 µM (active)"},
      {"measurement": "IC50", "setting": "[19]", "result": "> 66 µM (inactive)"},
      {"measurement": "EC50", "setting": "[20]", "result": "> 160 µM (inactive)"},
      {"measurement": "IC50", "setting": "[21]", "result": "> 39.8 µM (not active)"}
    ]},
    {"smiles": "COc1ccc(/C=N/Nc2cc(C)nc3ccccc23)cc1", "values": [
      {"measurement": "EC50", "setting": "[22]", "result": "2.35 µM (active)"},
      {"measurement": "CC50", "setting": "[23]", "result": "12.5 µM (active)"},
      {"measurement": "IC50", "setting": "[24]", "result": "11.1 µM (active)"},
      {"measurement": "EC50", "setting": "[25]", "result": "> 1.13 µM (active)"},
      {"measurement": "CC50", "setting": "[26]", "result": "12.1 µM (active)"},
      {"measurement": "CC50", "setting": "[27]", "result": "11 µM (active)"},
      {"measurement": "EC50", "setting": "[28]", "result": "11.2 µM (active)"}
    ]}
  ]
}
